Data published in patent US20110009350A1, “Oil-in-Water Formulation of Avermectins” (priority 2005, published 2011).

How the values were obtained:
[1] = Stability of Abamectin in water at various pH-values and temperatures, kept in the dark, HPLC; assay type: physicochemical
Experimental: The stability of Abamectin in water at various pH-values and temperatures was determined. 194.4 mg of Abamectin was dissolved in 10 ml methanol and 1 ml of the solution transferred to 100 ml of de-mineralised water and a part of this was transferred to a buffer solution. The sample was kept in the dark and the solution analysed using a HPLC.

[2] = Stability of Abamectin in water exposed to light (5000-6000 lux) at 25° C., HPLC; assay type: physicochemical
Experimental: The stability of Abamectin in water exposed to light at various pH-values was determined. 194.4 mg of Abamectin was dissolved in 10 ml methanol and 1 ml of the solution transferred to 100 ml of demineralised water and a part of this transferred to a buffer solution. The solution was exposed to light (5000-6000 lux) at 25° C. and analysed using a HPLC.

In the case of Abamectin, the “Abamectin concentration (ppm)” value ([1]; 25° C., 7 days, pH 4.0, dark) is reported as 3.130 ppm, the “Abamectin concentration (ppm)” value ([1]; 25° C., 7 days, pH 7.0, dark) is reported as 3.188 ppm and the “Abamectin concentration (ppm)” value ([1]; 25° C., 7 days, pH 9.0, dark) is reported as 3.005 ppm. For the same substance, the “Abamectin concentration (ppm)” value ([1]; 25° C., 14 days, pH 4.0, dark) was 2.782 ppm, the “Abamectin concentration (ppm)” value ([1]; 25° C., 14 days, pH 7.0, dark) was 3.040 ppm and the “Abamectin concentration (ppm)” value ([1]; 25° C., 14 days, pH 9.0, dark) was 2.596 ppm. For the same substance, the “Abamectin concentration (ppm)” value ([1]; 25° C., 21 days, pH 4.0, dark) was 2.566 ppm, the “Abamectin concentration (ppm)” value ([1]; 25° C., 21 days, pH 7.0, dark) was 2.829 ppm and the “Abamectin concentration (ppm)” value ([1]; 25° C., 21 days, pH 9.0, dark) was 2.380 ppm. For the same substance, the “Abamectin concentration (ppm)” value ([1]; 25° C., 28 days, pH 4.0, dark) was 2.524 ppm, the “Abamectin concentration (ppm)” value ([1]; 25° C., 28 days, pH 7.0, dark) was 2.676 ppm and the “Abamectin concentration (ppm)” value ([1]; 25° C., 28 days, pH 9.0, dark) was 2.287 ppm. For the same substance, the “Abamectin concentration (ppm)” value ([1]; 25° C., Initial, pH 4.0, dark) was 3.495 ppm, the “Abamectin concentration (ppm)” value ([1]; 25° C., Initial, pH 7.0, dark) was 3.327 ppm and the “Abamectin concentration (ppm)” value ([1]; 25° C., Initial, pH 9.0, dark) was 3.555 ppm. For the same substance, the “Abamectin concentration (ppm)” value ([1]; 50° C., 7 days, pH 4.0, dark) was 1.054 ppm, the “Abamectin concentration (ppm)” value ([1]; 50° C., 7 days, pH 7.0, dark) was 2.952 ppm and the “Abamectin concentration (ppm)” value ([1]; 50° C., 7 days, pH 9.0, dark) was 1.265 ppm. The “Abamectin concentration (ppm)” value ([1]; 50° C., 14 days, pH 4.0, dark) was 0.383 ppm, the “Abamectin concentration (ppm)” value ([1]; 50° C., 14 days, pH 7.0, dark) was 2.780 ppm and the “Abamectin concentration (ppm)” value ([1]; 50° C., 14 days, pH 9.0, dark) was 0.519 ppm. The “Abamectin concentration (ppm)” value ([1]; 50° C., 21 days, pH 4.0, dark) was 0.123 ppm, the “Abamectin concentration (ppm)” value ([1]; 50° C., 21 days, pH 7.0, dark) was 2.194 ppm and the “Abamectin concentration (ppm)” value ([1]; 50° C., 21 days, pH 9.0, dark) was 0.205 ppm. The “Abamectin concentration (ppm)” value ([1]; 50° C., 28 days, pH 4.0, dark) was 0.0609 ppm, the “Abamectin concentration (ppm)” value ([1]; 50° C., 28 days, pH 7.0, dark) was 1.949 ppm and the “Abamectin concentration (ppm)” value ([1]; 50° C., 28 days, pH 9.0, dark) was 0.0628 ppm. The “Abamectin concentration (ppm)” value ([1]; 50° C., Initial, pH 4.0, dark) was 3.495 ppm, the “Abamectin concentration (ppm)” value ([1]; 50° C., Initial, pH 7.0, dark) was 3.327 ppm and the “Abamectin concentration (ppm)” value ([1]; 50° C., Initial, pH 9.0, dark) was 3.555 ppm. The “Abamectin concentration (ppm)” value ([2]; 7 days, pH 4.0) was 2.923 ppm, the “Abamectin concentration (ppm)” value ([2]; 7 days, pH 7.0) was 2.941 ppm and the “Abamectin concentration (ppm)” value ([2]; 7 days, pH 9.0) was 3.163 ppm. The “Abamectin concentration (ppm)” value ([2]; 14 days, pH 4.0) was 2.332 ppm, the “Abamectin concentration (ppm)” value ([2]; 14 days, pH 7.0) was 2.529 ppm and the “Abamectin concentration (ppm)” value ([2]; 14 days, pH 9.0) was 2.810 ppm. The “Abamectin concentration (ppm)” value ([2]; 21 days, pH 4.0) was 1.961 ppm, the “Abamectin concentration (ppm)” value ([2]; 21 days, pH 7.0) was 2.223 ppm and the “Abamectin concentration (ppm)” value ([2]; 21 days, pH 9.0) was 2.360 ppm. The “Abamectin concentration (ppm)” value ([2]; 28 days, pH 4.0) was 1.666 ppm, the “Abamectin concentration (ppm)” value ([2]; 28 days, pH 7.0) was 2.034 ppm and the “Abamectin concentration (ppm)” value ([2]; 28 days, pH 9.0) was 2.173 ppm. The “Abamectin concentration (ppm)” value ([2]; Initial, pH 4.0) was 3.495 ppm, the “Abamectin concentration (ppm)” value ([2]; Initial, pH 7.0) was 3.327 ppm and the “Abamectin concentration (ppm)” value ([2]; Initial, pH 9.0) was 3.555 ppm.
